Results from patent publication US11596664B2, “Plant extracts made of Sideritis and use thereof to boost cognitive performance” (Finzelberg GmbH & Co. KG, priority 2010, dated 2023).

System: serotonin absorption (serotonergic re-uptake)
Assay: Serotonin absorption inhibition, test system according to EP 1 634 602
Type: biochemical
Conditions: reference substance at 10 μm; defines 100%
From the text: Serotonergic neurotransmission being influenced is described for plants of the genus Sideritis in the patent application EP 1 634 602. […] The experimental set-up described in paragraphs [0046] to [0054] for measuring serotonergic re-uptake rates was used for initial screening of suitable species for the tests.
50 g of the herbal drug is mixed twice with 15 times the quantity of boiling water and extracted with agitation. Both maceration extracts are allowed to stand at room temperature to cool down and combined. The two combined macerations are filtered off with a fluted filter and concentrated to a soft extract using a rotary evaporator. The extractive yields determined for the different species are shown below. In order to test for the serotonin absorption inhibition, the extracts were all weighed in at the same native content and assayed with a measuring concentration of 50 μg/ml in the test system according to EP 1 634 602.
50 g of the herb Sideritis was mixed twice at 45° C. with 15 times the quantity of a mixture of water and ethanol and extracted with agitation. Both maceration extracts were allowed to stand at room temperature to cool down and combined. The two combined macerations were filtered off with a fluted filter and concentrated to a soft extract using a rotary evaporator. The extractive yields determined for the different species are shown below. […]

COCCCC/C(=N\OCCN)c1ccc(C(F)(F)F)cc1 [fluvoxamine]
Serotonin absorption inhibition, positive control: 100%
